# Data published in paper PMC2819980 (Chemistry & biology, 2010).
# Tests used:
# Type in all cases: biochemical
# [1] = target: FrbH (Streptomyces rubellomurinus, UniProt Q0ZQ41); test: HPLC / LC-MS product analysis; conditions: 10 mM MgCl2, HEPES pH 7.25, 30 °C
# [2] = target: T1, FrbI (Streptomyces rubellomurinus, UniProt Q0ZQ40); test: in vitro hydrolysis
# [3] = target: T1, FrbI; test: HPLC / LC-MS product analysis, coupled with FrbH, FrbF and FrbG; conditions: 10 mM MgCl2, HEPES pH 7.25, 30 °C; substrate formed in situ
# T1 sequence (Q0ZQ40 whole entry): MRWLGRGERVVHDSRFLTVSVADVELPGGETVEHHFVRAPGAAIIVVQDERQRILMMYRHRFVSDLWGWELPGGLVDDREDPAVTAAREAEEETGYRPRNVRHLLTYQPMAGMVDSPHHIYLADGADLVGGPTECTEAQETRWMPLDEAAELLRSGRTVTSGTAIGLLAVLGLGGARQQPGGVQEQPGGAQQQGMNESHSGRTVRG
# Sequence of FrbH (Q0ZQ41 whole entry): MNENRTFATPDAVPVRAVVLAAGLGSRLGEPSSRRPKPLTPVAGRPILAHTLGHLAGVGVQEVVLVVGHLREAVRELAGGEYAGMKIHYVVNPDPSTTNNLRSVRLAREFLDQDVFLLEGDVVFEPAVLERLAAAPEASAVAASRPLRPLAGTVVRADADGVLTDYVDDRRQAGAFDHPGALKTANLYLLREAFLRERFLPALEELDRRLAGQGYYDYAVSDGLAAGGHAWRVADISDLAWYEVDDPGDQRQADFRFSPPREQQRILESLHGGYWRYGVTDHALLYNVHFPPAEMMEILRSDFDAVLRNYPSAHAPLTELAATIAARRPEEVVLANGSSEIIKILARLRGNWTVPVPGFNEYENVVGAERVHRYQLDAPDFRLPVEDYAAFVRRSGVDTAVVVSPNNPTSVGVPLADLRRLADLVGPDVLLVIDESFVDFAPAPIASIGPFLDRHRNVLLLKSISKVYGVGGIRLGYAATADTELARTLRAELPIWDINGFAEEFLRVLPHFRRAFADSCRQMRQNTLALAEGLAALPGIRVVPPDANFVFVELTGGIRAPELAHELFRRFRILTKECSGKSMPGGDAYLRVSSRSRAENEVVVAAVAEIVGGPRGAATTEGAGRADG
compound,measurement,setting,value
"NC(CCP(=O)(O)O)C(=O)O (racemic) [VI, 2APn]",HPLC / LC-MS product analysis,[1]; 1 mM CTP,FrbH condenses 2APn and CTP to form CMP-5'-2APn
Nc1ccn([C@@H]2O[C@H](COP(=O)(O)OP(=O)(O)OP(=O)(O)O)[C@@H](O)[C@H]2O)c(=O)n1 [CTP],in vitro hydrolysis,[2],even showed a small amount of activity toward CTP
same,HPLC / LC-MS product analysis,[1]; 2 mM (±)-2APn,FrbH condenses 2APn and CTP to form CMP-5'-2APn
"CC(=O)N(O)CCCP(=O)(O)OP(=O)(O)OC[C@H]1O[C@@H](n2ccc(N)nc2=O)[C@H](O)[C@@H]1O [IX, CMP-5'-FR-900098]","HPLC / LC-MS product analysis, coupled with FrbH, FrbF and FrbG",[3],FrbI catalyzes the hydrolysis of CMP-5'-FR-900098 to form FR-900098 and CMP
